In the supplement of paper PMC10307832:

Columns and labels:
Test in all cases: relative viability (nuclei count vs DMSO), 5 days (fraction); higher = more cells survive
[1] = compound: CC1=NN=C(O1)C2=NN=C(C=C2)N3CCC(CC3)OC4=C(C=CC(=C4)F)Cl + CS(=O)(=O)CCNCc1ccc(-c2ccc3ncnc(Nc4ccc(OCc5cccc(F)c5)c(Cl)c4)c3c2)o1 [Lapatinib] (partner 2 µM)
In short: (§1)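 Lung cancer cell lines in 1536-well plates got either a single drug or a fixed anchor-drug dose together with five library-drug doses (not always all listed) in √10 steps, by pin tool, on the day after seeding. Nuclei were counted after 5 days, and relative viability is the treated-to-vehicle ratio of nuclei counts. Values are medians of duplicate plates.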

[2] = compound: CC1=NN=C(O1)C2=NN=C(C=C2)N3CCC(CC3)OC4=C(C=CC(=C4)F)Cl + COc1cccc2cc(-c3nc([C@H]4CC[C@H](C(=O)O)CC4)n4ncnc(N)c34)[nH]c12 [OSI-027] (partner 0.5 µM)
In short: as §1

[3] = compound: CC1=NN=C(O1)C2=NN=C(C=C2)N3CCC(CC3)OC4=C(C=CC(=C4)F)Cl + Nc1nc2[nH]cc(CCc3ccc(C(=O)N[C@@H](CCC(=O)O)C(=O)O)cc3)c2c(=O)[nH]1 [Pemetrexed] (partner 0.2 µM)
In short: as §1

Tosedostat + Foretinib = compound: CC(C)C[C@@H](C(=O)N[C@H](C(=O)OC1CCCC1)c1ccccc1)[C@H](O)C(=O)NO [Tosedostat] + COc1cc2c(Oc3ccc(NC(=O)C4(C(=O)Nc5ccc(F)cc5)CC4)cc3F)ccnc2cc1OCCCN1CCOCC1 [Foretinib] (partner 0.25 µM)
In short: as §1

Cell Line | relative viability ([1]; first compound 0.253 µM) | relative viability ([1]; first compound 0.8 µM) | relative viability ([1]; first compound 2.53 µM) | relative viability ([1]; first compound 8 µM) | relative viability ([2]; first compound 0.253 µM) | relative viability ([2]; first compound 0.8 µM) | relative viability ([2]; first compound 2.53 µM) | relative viability ([2]; first compound 8 µM) | relative viability ([3]; first compound 0.253 µM) | relative viability ([3]; first compound 0.8 µM) | relative viability ([3]; first compound 2.53 µM) | relative viability ([3]; first compound 8 µM) | relative viability (Tosedostat + Foretinib; first compound 0.02 µM) | relative viability (Tosedostat + Foretinib; first compound 0.06325 µM) | relative viability (Tosedostat + Foretinib; first compound 0.2 µM) | relative viability (Tosedostat + Foretinib; first compound 0.6325 µM) | relative viability (Tosedostat + Foretinib; first compound 2 µM)
201T | 0.392 | 0.471 | 0.524 | 0.435 | 0.383 | 0.536 | 0.583 | 0.504 | 0.314 | 0.255 | 0.316 | 0.339 | 1.11 | 1.24 | 1.22 | 1.32 | 1.17
A549 | 0.523 | 0.365 | 0.4 | 0.425 | – | – | – | – | – | – | – | – | 0.925 | 0.967 | 0.998 | 0.974 | 0.652
A-427 | 0.818 | – | 0.825 | 0.54 | 0.498 | – | 0.428 | 0.404 | 1.03 | 0.792 | 0.922 | 0.947 | 0.979 | 1 | 1.07 | 1.12 | 0.877
ABC-1 | 1.13 | 1.07 | 0.92 | 0.887 | 0.244 | 0.326 | 0.411 | 0.47 | – | – | – | – | 1.23 | 0.971 | 1.02 | 1.18 | 1.11
BEN | 0.607 | 0.729 | 0.743 | 0.61 | 0.309 | 0.28 | 0.309 | 0.318 | 0.736 | 0.84 | 0.806 | 0.741 | 0.713 | 0.825 | 0.799 | 0.878 | 0.846
CAL-12T | 0.59 | 0.565 | 0.579 | 0.425 | 0.54 | 0.705 | 0.668 | 0.513 | 0.946 | 1.05 | 1.03 | 0.9 | 1.15 | 1.04 | 1.22 | 1.11 | 1.05
COR-L23 | 0.811 | 0.761 | 0.756 | 0.602 | 0.654 | 0.558 | 0.586 | 0.389 | 0.179 | 0.193 | 0.176 | 0.181 | 1.04 | 1.03 | 0.975 | 1.07 | 1.06
COR-L 105 | 0.349 | 0.36 | 0.332 | 0.417 | 0.702 | 0.687 | 0.908 | 0.769 | 1.2 | 1.07 | 1.18 | 1.29 | 1.3 | 0.8 | 1.06 | 0.753 | 0.69
Calu-6 | 0.65 | 0.604 | 0.636 | 0.557 | – | – | – | – | – | – | – | – | 1.04 | 0.858 | 0.826 | 0.638 | 0.559
ChaGo-K-1 | – | – | – | – | 0.506 | 0.422 | 0.597 | 0.398 | 0.245 | 0.265 | 0.248 | 0.266 | 0.911 | 0.934 | 0.976 | 0.833 | 0.709
EBC-1 | 0.208 | 0.191 | 0.182 | 0.197 | – | – | – | – | – | – | – | – | 0.112 | 0.0828 | 0.0952 | 0.115 | 0.117
EKVX | 0.175 | 0.178 | 0.187 | 0.193 | 0.481 | 0.465 | 0.362 | 0.423 | 0.269 | 0.263 | 0.343 | 0.348 | 0.649 | 0.759 | 0.795 | 0.736 | 0.729
EMC-BAC-2 | 0.837 | 0.843 | 0.854 | 0.647 | 0.441 | 0.382 | 0.354 | 0.417 | 0.452 | 0.419 | 0.485 | 0.527 | 0.954 | 1.02 | 0.999 | 1.1 | 0.838
EPLC-272H | 0.809 | – | 1.01 | 0.814 | 0.283 | 0.248 | 0.26 | 0.298 | 0.313 | 0.339 | 0.285 | 0.371 | 0.658 | 0.512 | 0.58 | 0.355 | 0.185
H3255 | 0.24 | 0.193 | 0.266 | 0.269 | 0.578 | 0.581 | 0.545 | 0.511 | 0.506 | 0.533 | 0.518 | 0.577 | 0.871 | 0.902 | 1.02 | 0.709 | 0.796
HARA | 0.397 | 0.363 | 0.403 | 0.285 | 0.404 | 0.206 | 0.359 | 0.348 | 0.245 | 0.26 | 0.239 | 0.231 | 0.941 | 0.914 | 0.852 | 0.813 | 0.787
HCC-15 | 0.418 | 0.408 | 0.415 | 0.414 | 0.605 | 0.573 | 0.532 | 0.522 | 0.215 | 0.239 | 0.226 | 0.214 | 1.08 | 0.995 | 1.02 | 0.96 | 0.849
HCC-44 | 0.324 | 0.439 | 0.383 | 0.43 | 0.391 | 0.53 | 0.344 | 0.389 | 0.264 | 0.378 | 0.282 | 0.31 | – | – | – | – | –
HCC-78 | 0.401 | 0.351 | 0.404 | 0.325 | 0.414 | 0.369 | 0.348 | 0.335 | 0.888 | 0.879 | 0.872 | 0.853 | 0.518 | 0.59 | 0.545 | 0.662 | 0.684

Cell Line | relative viability ([1]; first compound 0.253 µM) | relative viability ([1]; first compound 0.8 µM) | relative viability ([1]; first compound 2.53 µM) | relative viability ([1]; first compound 8 µM) | relative viability ([2]; first compound 0.253 µM) | relative viability ([2]; first compound 0.8 µM) | relative viability ([2]; first compound 2.53 µM) | relative viability ([2]; first compound 8 µM) | relative viability ([3]; first compound 0.253 µM) | relative viability ([3]; first compound 0.8 µM) | relative viability ([3]; first compound 2.53 µM) | relative viability ([3]; first compound 8 µM) | relative viability (Tosedostat + Foretinib; first compound 0.02 µM) | relative viability (Tosedostat + Foretinib; first compound 0.06325 µM) | relative viability (Tosedostat + Foretinib; first compound 0.2 µM) | relative viability (Tosedostat + Foretinib; first compound 0.6325 µM) | relative viability (Tosedostat + Foretinib; first compound 2 µM)
HCC-366 | 0.384 | 0.41 | 0.393 | 0.406 | 0.32 | 0.399 | 0.393 | 0.407 | 0.0851 | 0.121 | 0.174 | 0.15 | 0.913 | 0.948 | 0.972 | 0.927 | 0.935
HCC-827 | 0.201 | 0.197 | 0.176 | 0.2 | 0.602 | 0.362 | 0.653 | 0.591 | 0.257 | 0.244 | 0.246 | 0.224 | 0.999 | 1.09 | 1.06 | 0.946 | 0.895
HOP-62 | 0.799 | – | 0.523 | 0.684 | 0.762 | 0.579 | 0.771 | 0.555 | 0.315 | 0.318 | 0.231 | 0.17 | 1.27 | 1.09 | 1.09 | 1.02 | 1
IA-LM | 0.283 | 0.241 | 0.257 | 0.275 | – | – | – | – | – | – | – | – | 1.18 | 1.19 | 1.19 | 1.12 | 0.903
LC-2-ad | 0.291 | 0.271 | 0.335 | 0.262 | 0.689 | 0.678 | 0.632 | 0.682 | 0.267 | 0.27 | 0.282 | 0.239 | 0.987 | 0.939 | 0.941 | 0.842 | 0.806
LCLC-97TM1 | 0.827 | – | 0.553 | 0.687 | 0.523 | 0.391 | 0.472 | 0.508 | 0.184 | – | 0.199 | 0.184 | 0.878 | 0.926 | 0.833 | 0.771 | 0.773
LCLC-103H | – | – | – | – | 0.372 | 0.426 | 0.426 | 0.385 | 0.435 | 0.418 | 0.403 | 0.409 | 0.787 | 0.797 | 0.878 | 0.797 | 0.777
LK-2 | 0.982 | 0.945 | 0.947 | 0.818 | 0.265 | 0.23 | 0.311 | 0.234 | 0.318 | 0.256 | 0.377 | 0.255 | 1.1 | 0.926 | 1.02 | 1.11 | 1.68
LOU-NH91 | – | 0.7 | 0.717 | 0.687 | 0.693 | 0.645 | 0.706 | 0.69 | – | 0.386 | 0.394 | 0.424 | 0.981 | 0.955 | 0.882 | 0.887 | 0.871
NCI-H441 | – | – | – | – | 0.579 | 0.347 | 0.603 | 0.52 | 0.295 | 0.265 | 0.223 | 0.258 | 0.906 | 1.1 | 0.992 | 0.63 | 0.604
NCI-H522 | – | – | – | – | 0.725 | 0.659 | 0.699 | 0.693 | 1.02 | 0.947 | 1.14 | 0.959 | – | – | – | – | –
NCI-H727 | 0.815 | 0.721 | 1.01 | 0.795 | 0.704 | 0.494 | 0.685 | 0.741 | – | – | – | – | 0.908 | 0.622 | – | 0.602 | 0.487
NCI-H1299 | 0.737 | 0.718 | 0.752 | 0.687 | – | – | – | – | – | – | – | – | 1.15 | 1.14 | 1.14 | 1.04 | 0.966
NCI-H1623 | – | – | – | – | 0.36 | 0.457 | 0.392 | 0.429 | – | – | – | – | 0.825 | 0.905 | 0.856 | 0.843 | 0.794
NCI-H1648 | – | – | – | – | 0.256 | 0.253 | 0.279 | 0.271 | 0.593 | 0.625 | 0.647 | 0.685 | – | – | – | – | –
NCI-H1703 | 1.06 | 0.795 | 0.904 | 0.76 | – | – | – | – | – | – | – | – | 0.329 | 0.288 | 0.327 | – | 0.322
NCI-H1792 | 0.417 | 0.436 | 0.404 | 0.502 | 0.547 | 0.587 | 0.686 | 0.731 | 0.735 | 0.648 | 0.785 | 0.6 | – | – | – | – | –
NCI-H2342 | – | – | – | – | 0.57 | 0.531 | 0.515 | 0.522 | 0.646 | 0.663 | 0.701 | 0.614 | 0.944 | 1.01 | 1.27 | 0.924 | 0.89
SW 900 | – | – | – | – | – | – | 0.637 | 0.41 | – | 0.444 | 0.486 | 0.449 | 0.854 | 0.904 | 0.709 | 0.765 | 0.61
